Experimental findings from PubChem BioAssay (NCI) are described below.

SMILES strings stand for the structures.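 Values below derive from 48-hour exposures of cells grown in 96-well plates, with endpoints linearly interpolated between the two concentrations bracketing the appropriate inhibition level. GI50: concentration for 50% inhibition of growth. TGI marks complete inhibition of growth.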

Holding throughout (test): NCI tumour cell line growth inhibition, 48 h
The test system of test [1] is U251 CNS.
The test system of test [2] is IGROV1 ovarian.
In test [3] the test system is MDA-MB-231 breast.
For test [4], the system named is HT29 colon.
The subject of test [5] is LOX IMVI melanoma.
Test [6] deals with SF-268 CNS.
Test [7] has as its system MOLT-4 leukemia.
Test [8] deals with SK-MEL-2 melanoma.
Test [9] relates to SK-MEL-5 melanoma.
Test [10] has as its system UO-31 renal.

As to `CCN(CC)CCC(=O)Nc1ccc(Cn2nnc3c2C(=O)c2nnn(Cc4ccc(NC(=O)CCN(CC)CC)cc4)c2C3=O)cc1`, the GI50 in test [1] was 0.254 µM; in [2] it was 0.411 µM; in test [3] it was 0.253 µM; in [4] it was 0.304 µM; in test [5] it was 0.232 µM; in test [6] it was 0.338 µM. Also, the GI50 in test [7] was 0.242 µM; in test [8], 0.22 µM; in test [9], 0.485 µM; in [10] it was > 41.1 µM. For the same compound, the TGI in [1] came out at 0.688 µM; in test [2] it was 1.37 µM; in [3] it was 10.2 µM; in test [4], 0.787 µM; in test [5], 0.703 µM; in test [6] it was 1.51 µM. For the same compound, the TGI is 0.628 µM in test [7], 0.571 µM in test [8], 1.25 µM in [9] and > 61.8 µM in test [10].
As for `COc1ccc2c(c1O)[C@@]13C=C(O)C(=O)C=C1[C@@H](C2)N(C)CC3`, the TGI in test [1], in [2], in test [3], in test [4], in [5] and in test [6] was > 100 µM throughout. In addition, the TGI in [7], in [8], in test [9] and in [10] was > 100 µM in each case.
For the compound `COc1ccc(S(=O)(=O)N/N=C/C(=O)O)cc1`, the TGI was 1200 µM in test [1]; 1060 µM in test [2]; > 1250 µM in [3]; > 580 µM in test [4]; 733 µM in [5]; 975 µM in [6]. The TGI in [7] was 694 µM; in test [8], 826 µM; in test [9] it was 894 µM; in [10], > 1250 µM.
Regarding `O=C(Cc1nc2ccc(C(=O)c3ccccc3)cc2[nH]c1=O)C(=O)Nc1ccccc1[N+](=O)[O-]`, the TGI in [1], in test [2], in [3], in [4], in test [5] and in test [6] was > 100 µM throughout. The TGI in [8], in test [9] and in test [10] was > 100 µM each time.
As to `Cc1nnc([S-])s1.[Au+].c1ccc([PH+](c2ccccc2)c2ccccc2)cc1`, the GI50 in [2] is 1.53 µM; in test [3] it was 1.65 µM; in [5], 1.44 µM; in test [7], 2.34 µM; in test [8], 1.64 µM; in test [9] it was 1.51 µM. For the same compound, in test [10], the GI50 was 1.64 µM. The TGI in test [2] is 2.97 µM; in test [3], 3.05 µM; in test [5], 2.82 µM; in test [7] it was 6.76 µM; in test [8] it was 3.11 µM; in test [9], 2.97 µM. Also, in test [10], the TGI came to 2.99 µM.
As for `O=C(OCc1ccccc1CN1CCOCC1)c1ccc(Br)cc1`, the TGI is > 100 µM in test [1]; > 100 µM in [2]; > 100 µM in test [3]; 44.2 µM in test [4]; > 100 µM in test [5]; > 100 µM in test [6]. Besides, the TGI in test [8] is > 100 µM; in [9], 41.9 µM; in test [10], > 100 µM.
Consider `COc1cc2c3c(c1OC)-c1ccccc1C(C(OC(C)=O)c1ccccc1)C3N(C)CC2` (stereo not drawn), for which the TGI in test [1], in [2], in [4], in test [5], in test [6] and in test [7] was > 100 µM throughout. The TGI in [8] was 83.7 µM; in [9], 49.6 µM; in test [10], > 100 µM.
In the case of `CCCCCCCCCCCCCCCC[N+]1(CC)CCCC1`, the GI50 in [1] was 0.363 µM; in test [2], 0.432 µM; in [3] it was 0.589 µM; in test [5] it was 0.162 µM; in [6], 0.454 µM; in test [7], 0.486 µM. Also, the GI50 in test [9] was 0.4 µM; in test [10], 2.79 µM. The TGI in test [1] is 1.35 µM; in test [2], 1.87 µM; in [3] it was 2.19 µM; in test [5] it was 0.454 µM; in test [6], 1.68 µM; in test [7], 2.19 µM. The TGI turned out to be 1.52 µM in test [9] and 11.6 µM in [10].
`O=C(O)c1cc(Cl)cc(NC(=O)C(Cl)Cl)c1Cl`: the TGI in test [1], in test [2], in [4], in [5], in test [6] and in test [7] was > 100 µM in each case. Further, the TGI in test [8], in test [9] and in [10] was > 100 µM in each case.
Take `CCOC(=O)CCC1(C(=O)OC)CCCC1=O` (stereo not drawn): the TGI in [1], in test [2], in [4], in [5], in test [6] and in test [7] was > 100 µM in each case. Also, the TGI in [8], in test [9] and in test [10] was > 100 µM each time.
Consider `COc1cc(C(c2cc3c(cc2O)OCO3)N2CCCC2)cc(OC)c1OC` (stereo not drawn), for which the TGI in test [1] amounted to 37.8 µM; in [2] it was 27.8 µM; in test [3], 31.3 µM; in test [4], 28 µM; in [5], 31.9 µM; in [7], 20.7 µM. For the same compound, the TGI in test [8] worked out at 40 µM; in test [9], 41.5 µM; in test [10] it was 28.1 µM.
As for `Oc1cccc(-c2nc3ccccc3s2)c1`, the TGI in test [1] was > 100 µM; in test [2], 63.8 µM; in test [3], 56.2 µM; in test [4], 42.9 µM; in test [5] it was 77 µM; in test [6], 68.7 µM. Moreover, the TGI in test [7], in test [8] and in test [10] was > 100 µM throughout.
Regarding `COc1ccc2cccc(C(=N)c3ccc(C)c4c3CCC4)c2c1`, the TGI in test [1] came out at 21.4 µM; in test [2], 19.2 µM; in [4] it was 15 µM; in test [5], 25.5 µM; in test [6], 31.8 µM; in [7], 26.1 µM. The figures for the TGI in [8], in test [9] and in test [10] were 24.4 µM, 14.8 µM and 16.2 µM, respectively.
As to `CC(C)OP(=O)(CP(=O)(OC(C)C)OC(C)C)OC(C)C.[CH3][Sn]([Br])([Br])[Br]`, the GI50 in test [1], in test [2], in test [4], in test [5], in [6] and in test [7] was > 100 µM in each case. The GI50 in [8], in test [9] and in test [10] was > 100 µM each time. The TGI in test [1], in [2], in [4], in test [5], in [6] and in test [7] was > 100 µM each time. In addition, the TGI in test [8], in [9] and in test [10] was > 100 µM throughout.
Take `COc1ccc([Se]c2ccc(OC)cc2OC)c(OC)c1`: the TGI in [1] was > 100 µM; in test [2], 59.9 µM; in test [4] it was 29.7 µM; in test [5], > 100 µM; in test [6] it was > 100 µM; in test [7] it was > 100 µM. For the same compound, the TGI turned out to be 92.2 µM in [8], 93.4 µM in test [9] and 65.8 µM in test [10].
Turning to `Oc1cc2cc(-c3ccccc3)[nH]c2c2ccccc12`, the TGI in [1] is > 100 µM; in [2] it was > 100 µM; in test [4], > 100 µM; in [5], 34.3 µM; in test [6], > 100 µM; in test [7], > 82.6 µM. Besides, the TGI in [8] was 43.5 µM; in test [9] it was 27.2 µM; in test [10], > 92.6 µM.
For `CC1=CC2=C(C)C3(CC3)[C@@](C)(O)C(=O)C2=C1`, the TGI was 0.507 µM in test [1]; > 0.979 µM in test [2]; 0.803 µM in [4]; 0.594 µM in [5]; 0.456 µM in test [6]; > 1 µM in test [7]. Further, the TGI in test [8] stood at 0.365 µM; in test [9], 0.294 µM; in test [10] it was 0.337 µM.
Turning to `O=c1[nH]c(=O)n(C2CC(O)C(CO)O2)cc1C#Cc1ccc(C(F)(F)F)cc1` (stereo not drawn), the TGI in test [1], in test [2], in test [4], in test [5], in test [6] and in [7] was > 100 µM throughout. The TGI in test [8], in [9] and in [10] was > 100 µM each time.
Turning to `COC(=O)c1c(C)oc2ccc(OC(C)=O)cc12`, the TGI in [1], in test [2], in [4], in test [5], in test [6] and in [7] was > 100 µM each time. For the same compound, the TGI in test [8], in [9] and in test [10] was > 100 µM each time.
In the case of `COc1cc2oc3ccccc3c(=O)c2cc1CSc1ccccc1N`, the TGI in test [1], in test [2], in test [3], in [4], in test [5] and in test [6] was > 100 µM in each case. Further, the TGI in test [7] was 26.1 µM; in test [8], > 77.6 µM; in test [9] it was > 74 µM.
`CC(C)(C)n1cc(-c2ccnc(NCCNS(=O)(=O)c3ccc(Br)cc3)c2)c(-c2cccc(O)c2)n1`: the GI50 in test [1] is 1.53 µM; in test [2], 1.95 µM; in test [3], 1.91 µM; in test [4], 1.52 µM; in test [5] it was 1.75 µM; in [6] it was 2.04 µM. Also, the GI50 in test [8] was 1.93 µM; in [9], 1.36 µM; in test [10], 1.35 µM. For the same compound, the TGI in test [1] was 3.29 µM; in [2] it was 4.39 µM; in test [3], 4.07 µM; in test [4], 3.75 µM; in test [5], 3.15 µM; in [6] it was 5.96 µM. Besides, the figures for the TGI in test [8], in test [9] and in test [10] were 3.99 µM, 2.67 µM and 4.47 µM, respectively.
As to `COc1c(O)c(OC)c(C(=O)/C=C/c2ccccc2)c(O)c1OC`, the TGI is > 100 µM in test [1]; > 100 µM in test [2]; 72 µM in test [3]; > 100 µM in test [4]; 87.2 µM in [5]; > 100 µM in test [6]. In addition, the TGI in test [7] is > 100 µM; in test [8], 61.2 µM; in test [9], 46 µM.
In the case of `CCOC(=O)c1cnc2[nH]c(=O)c3ccccc3n2c1=O`, the TGI in [1], in test [2], in test [4], in [5], in test [6] and in test [7] was > 100 µM each time. Also, the TGI in test [8], in [9] and in test [10] was > 100 µM each time.
Take `Clc1ccc2c(Cl)ncnc2c1`: the TGI in test [1], in test [2], in [4], in test [5], in [6] and in test [7] was > 100 µM throughout. For the same compound, the TGI in test [8], in test [9] and in test [10] was > 100 µM throughout.
For the compound `COC(=O)C(CC=O)C(=O)C(=O)Nc1cccc(C(F)(F)F)c1` (stereo not drawn), the TGI in test [1], in [2], in [4], in test [5], in [6] and in test [7] was > 100 µM each time. The TGI in test [8], in [9] and in [10] was > 100 µM in each case.
